# From patent publication US20090221554A1, “METHOD OF TREATING COGNITIVE IMPAIRMENT” (priority 2008, published 2009)
# How the values were obtained:
# [1] = tested on: cognitive impairment induced by scopolamine; test: Passive avoidance task, scopolamine-induced cognitive impairment in mice; assay type: in vivo
# Procedure: Male mice of the ICR strain (Charles River Laboratories Japan, Inc.) at the ages of 8 to 9 weeks were used in the experiment. They were housed in a cage in group of 3 or 4 mice, in a room maintained at around 22° C. with a 12-h light/dark cycle. Food and water were available ad libitum. All animal care and treatments were conducted in accordance with the Guidelines for the Care and Use of Laboratory Animals established at the Central Research Laboratory, Zenyaku Kogyo Co., Ltd.
# Compound 1 and donepezil were suspended in 1% carboxymethyl cellulose (CMC). […] For the coadministration studies of Compound 1 and donepezil, both drug suspensions were mixed together and this mixed suspension was injected. All drugs were prepared immediately before use and orally administered in a volume of 10 ml/kg.
# The passive avoidance apparatus (Neuroscience Inc.) consisted of an illuminated chamber and a larger dark chamber. Two chambers were separated by a guillotine door. Oral administration of compound 1 at doses of 0.0001 mg/kg or 0.001 mg/kg and/or donepezil at doses of 0.01 and 0.1 mg/kg was given 60 min before the acquisition trial. […] Matched control group received vehicle only. In the acquisition trial, each mouse was placed in the illuminated chamber. Immediately after the entry into the dark chamber, the door was closed and inescapable scrambled electric shock (100 V, 0.4 mA, 1.5 sec) was delivered through the floor grid. Twenty-four h later, each mouse was placed in the illuminated chamber for retention trial. The interval between the placement in the illuminated chamber and the entry into the dark chamber was measured as step through latency (maximum 300 sec).
# P level of <0.05 was considered indicative of statistical significance for the tests.
# [2] = tested on: extracellular level of ACh in the hippocampus; test: Extracellular level of acetylcholine (ACh) in the rat hippocampus (microdialysis, HPLC-ECD); assay type: in vivo, rats; conditions: vs 1% CMC
# Procedure: Food and water were available ad libitum. All animal care and treatments were conducted in accordance with the Guidelines for the Care and Use of Laboratory Animals established at the Central Research Laboratory, Zenyaku Kogyo Co., Ltd.
compound,measurement,setting,value
"O=C1N=C2C=CC=CN2C12Cc1ccccc1C2 [compound 1, spiro[imidazo[1,2-a]pyridin-2(3H)-one-3,2′-indan]]",step-through latency,"[1]; compound 1 0.0001 mg/kg p.o. 60 min before acquisition, scopolamine 1 mg/kg i.p., retention trial 24 h, vs 1% CMC + scopolamine",did not significantly prolong
same,step-through latency,"[1]; compound 1 0.001 mg/kg p.o., scopolamine 1 mg/kg i.p., vs 1% CMC + scopolamine, P<0.05",prolonged
same,extracellular level of ACh in the hippocampus,[2]; compound 1 0.001 mg/kg p.o.,did not significantly increase
COc1cc2c(cc1OC)C(=O)C(CC1CCN(Cc3ccccc3)CC1)C2 (stereo not shown) [donepezil],step-through latency,"[1]; donepezil 0.01 mg/kg p.o., scopolamine 1 mg/kg i.p., vs 1% CMC + scopolamine",did not significantly prolong
same,step-through latency,"[1]; donepezil 0.1 mg/kg p.o., scopolamine 1 mg/kg i.p., vs 1% CMC + scopolamine, P<0.05",prolonged
same,extracellular level of ACh in the hippocampus,[2]; donepezil 1 mg/kg p.o.,did not significantly increase
CN1[C@@H]2C[C@@H](OC(=O)[C@H](CO)c3ccccc3)C[C@H]1[C@@H]1O[C@@H]12 [scopolamine],step-through latency,"[1]; 1% CMC + scopolamine 1 mg/kg i.p. vs 1% CMC + saline control, P<0.01",markedly shorter
